Laboratory results: patent US4980474A, “Apovincaminic acid derivatives” (Taisho Pharmaceutical Co., Ltd., priority 1988, dated 1990)

Assays:
femoral artery = assay: Effect on increase of blood flow, femoral artery (anesthetized dogs); format: in vivo; conditions: 50 μg/kg intraarterially
Protocol: (§1) Effect on increase of blood flow was examined using dogs anesthetized with 5% pentbarbital sodium (30 mg/kg). The drugs [2-nitroxyethyl (+)-apovincaminate and 3-nitroxyl-n-propyl apovincaminate of the present invention and ethyl (+)-apovincaminate as control] were administered intraarterially in an amount of each 50 μg/kg, comparisons were made of the blood flows in the femoral artery, vertebral artery and common coronary artery before and after administration of the drugs, and the increase ratios of the blood flows were expressed by percent in Table 1.

vertebral artery = assay: Effect on increase of blood flow, vertebral artery (anesthetized dogs); format: in vivo; conditions: 50 μg/kg intraarterially
Protocol: as §1

common coronary artery = assay: Effect on increase of blood flow, common coronary artery (anesthetized dogs); format: in vivo; conditions: 50 μg/kg intraarterially
Protocol: as §1

[1] = test system: basilar and femoral artery rings, K^+ contraction; assay: Inhibition of basilar and femoral artery contraction induced by K^+; set-up: species or system Mongrel dogs; conditions: Canis lupus familiaris; 64 mM K^+; Krebs-Ringer, isolated dog artery rings
Protocol: (§2) The test was carried out according to the method of Sonia Jancar et al described in European Journal of Pharmacology, vol. 136, page 345 (1987). Mongrel dogs were killed by anesthetization with pentbarvital (60 mg/kg), the brain was rapidly removed, and the basilar artery was dissected. The femoral artery was picked up at the same time. The isolated blood vessel was cut into rings 5 mm wide, which were soaked in 5 ml of a Krebs-Ringer solution under a resting tension of 1 g. The solution was kept with 95% oxygen and 5% carbon dioxide. To each of the solution in which the blood vessel rings were soaked were added 64 mM of potassium ion (K^+), 10^-5 M of norepinefurin (NE) and 10^-6 M of serotonine (5HT), respectively, and the resulting blood contractions were measured by FD pick up. To the blood vessel rings each was administered the drug [2-nitroxyethyl (+)-apovincaminate of the present invention and ethyl (+)-apovincaminate as control], and the concentrations (IC50) required to produce 50% inhibitions of the contractions by the administration of K^+, NE and 5TH, respectively, were measured.

[2] = test system: basilar and femoral artery rings, NE contraction; assay: Inhibition of basilar and femoral artery contraction induced by norepinephrine (NE); set-up: species or system Mongrel dogs; conditions: Canis lupus familiaris; 10^-5 M norepinephrine; Krebs-Ringer, isolated dog artery rings
Protocol: as §2

[3] = test system: basilar and femoral artery rings, 5HT contraction; assay: Inhibition of basilar and femoral artery contraction induced by serotonin (5HT); set-up: species or system Mongrel dogs; conditions: Canis lupus familiaris; 10^-6 M serotonin; Krebs-Ringer, isolated dog artery rings
Protocol: as §2

[4] = test system: spontaneous spindle bursts (abnormal EEG pattern in aged rats); assay: Improvement of abnormalities of electroencephalogram (EEG) in aged rats; format: in vivo, male Wistar rats; conditions: 10 mg/kg intraperitoneally; for Time up to which the spontaneous spindle burst reappeared: aged rats 23-24 months; for increment of the time up to which the spontaneous spindle wave reappeared versus group treated with vitamin C only: number in parentheses
Protocol: Six male Wistar rats (23-24 months old) were used for each group. The electrodes were implanted on the frontal and occipital cortexes and hippocamus, and the rats were housed for 14 days for applying to the test. The rats operated were each put into an acoustically shielded box with the minimum light amount and tamed for 60 minutes while keeping the behavior free, and then the recording of EEG was started. Thirty minutes after the starting the recording of EEG, the drug (used the same as those in Experiment 2) dissolved in 1 ml of an aqueous vitamin C solution was intraperitoneally administered in the amount of 10 mg per 1 kg of the body weight of the rat. The spontaneous spindle bursts (abnormal EEG pattern in aged rats) were disappeared after the intraperitoneal administration and reappeared after a certain time. [Neurobiology of Aging, vol. 7, page 115 (1986)]. The time up to which the spontaneous spindle burst reappeared was measured. Group which received 10% aqueous vitamin C solution only was tested for comparison. Number in parentheses means the increment of the time (minutes) up to which the spontaneous spindle wave reappeared after the drug administration when compared with that of the group treated with vitamin C only.

IC50 [1] [µM]	IC50 [2] [µM]	IC50 [3] [µM]	SMILES	Increase of blood flow, Femoral artery (femoral artery) [%]	Increase of blood flow, Bertebral artery (vertebral artery) [%]	Increase of blood flow, Common coronary artery (common coronary artery) [%]	activity relative to drug B (control) in terms of the increment of the time up to which the spontaneous spindle burst reappeared ([4]; aged rats)	Time up to which the spontaneous spindle burst reappeared [4] [min]	increment of the time up to which the spontaneous spindle wave reappeared versus group treated with vitamin C only ([4]; aged rats) [min]
–	–	–	CC[C@@]12C=C(C(=O)OCCCO[N+](=O)[O-])n3c4c(c5ccccc53)CCN(CCC1)[C@H]42 [3-Nitroxy-n-propyl (+)-apovincaminate]	28.2	45.7	44.3	–	–	–
1.17	22.3	6.02	CC[C@@]12C=C(C(=O)OCCO[N+](=O)[O-])n3c4c(c5ccccc53)CCN(CCC1)[C@H]42 [Drug A, 2-nitroxyethyl (+)-apovincaminate]	86.8	72.3	71.1	about 3 times	41	31
2.5	63.1	100	CCOC(=O)C1=C[C@]2(CC)CCCN3CCc4c(n1c1ccccc41)[C@@H]32 [Drug B, Ethyl (+)-apovincaminate, reference compound]	14.8	21.8	15.5	–	21	11
